Measurements: patent publication US20040250469A1, “Method for marking hydrocarbons with substituted anthraquinones” (priority 2003, published 2004)

Legend:
[1] = Absorption maximum and extinction measurement (absorbance, 1 cm path length, 10 mg/L solutions); format: physicochemical; details: for extinction value: 10 mg/L solution, 1 cm path length; for molar extinction coefficient (ε): at λmax, toluene
Protocol: All percentages are weight percentages, unless otherwise indicated. Concentrations in parts per million (“ppm”) are calculated on a weight/volume basis. When a solvent is not specified for measurement of an absorption maximum, a hydrocarbon solvent is preferred. Extinction values are determined by measuring absorption in absorbance units (“AU”) with a 1 cm path length on 10 mg/L solutions. The term “petroleum hydrocarbons” refers to products having a predominantly hydrocarbon composition, although they may contain minor amounts of oxygen, nitrogen, sulfur or phosphorus; petroleum hydrocarbons are derived from petroleum refining processes; they include, for example, lubricating oil, hydraulic fluid, brake fluid, gasoline, diesel fuel, kerosene, jet fuel and heating oil. An “alkyl” group is a hydrocarbyl group having from one to twenty carbon atoms in a linear, branched or cyclic arrangement. Alkyl groups optionally have one or more double or triple bonds. Substitution on alkyl groups of one or more halo, hydroxy or alkoxy groups is permitted; alkoxy groups may in turn be substituted by one or more halo substituents. Preferably, alkyl groups have no halo or alkoxy substituents, and most preferably, alkyl groups are saturated and unsubstituted. A “heteroalkyl” group is an alkyl group in which at least one carbon has been replaced by O, NR, or S, wherein R is hydrogen, alkyl, aryl or aralkyl. An “aryl” group is a substituent derived from an aromatic hydrocarbon compound. An aryl group has a total of from six to twenty ring atoms, and has one or more rings which are separate or fused. An “aralkyl” group is an “alkyl” group substituted by an “aryl” group. A “heterocyclic” group is a substituent derived from a heterocyclic compound having from five to twenty ring atoms, at least one of which is nitrogen, oxygen or sulfur. […] Substitution on aryl or heterocyclic groups of one or more of the following groups: halo, cyano, nitro, hydroxy, alkoxy, alkyl, heteroalkyl, alkanoyl, amino, or amino substituted by one or more of alkyl, aryl, aralkyl, heterocyclic, heteroalkyl or alkanoyl is permitted, with substitution by one or more halo groups being possible on alkyl, heteroalkyl, alkanoyl or alkoxy groups. […] In one preferred embodiment of the invention, aryl and heterocyclic groups are unsubstituted or substituted only by alkyl groups. An “aromatic heterocyclic” group is a heterocyclic group derived from an aromatic heterocyclic compound.
The absorption maxima, λmax, of several substituted anthraquinone dyes of formula (I), measured in xylene, are provided in the following table. For all of the dyes listed, R^4 and R^6 are hydrogen.

Solubility in xylene = format: physicochemical; details: weight percentage
Protocol: A mixture of leuco-1,4,5,8-tetrahydroxyanthraquinone (5.91 g), sodium dithionite (1.09 g) and 1-hexanol (175.2 g) was stirred while adding 2-ethylhexylamine (24.08 g). The mixture was heated to reflux (148-152° C.), maintained at reflux for 6-6.5 hours, and then cooled to ambient temperature. The precipitate was collected and washed thoroughly with methanol and water, and dried. The yield of dried isolated product was 7.0 g. Approximately another 1.9 g was present in the mother liquor, for a total yield of 8.9 g (90%). This material has a maximum absorption band (λmax) at a wavelength of 692 nm in xylene, or 688 nm in cyclohexane, with an extinction value of 0.640 AU in xylene and 0.660 AU in cyclohexane for a 10 mg/L solution. The solubility of the title compound in xylene is approximately 20%.

maximum absorption band (λmax) wavelength ([1]; in xylene) [nm]	extinction value ([1]; in xylene) [AU]	maximum absorption band (λmax) wavelength ([1]; in toluene) [nm]	SMILES	also measured
900	0.19	–	CCCCc1ccc(Nc2c(C#N)c(C#N)c(Nc3ccc(CCCC)cc3)c3c2C(=O)c2c(Nc4ccc(CCCC)cc4)c(C#N)c(C#N)c(Nc4ccc(CCCC)cc4)c2C3=O)cc1 [1,4,5,8-tetra(4′-n-butylphenylamino)-2,3,6,7-tetracyanoanthraquinone]	–
835	0.342	–	CCCCc1ccc(Nc2ccc(Nc3ccc(CCCC)cc3)c3c2C(=O)c2c(Nc4ccc(CCCC)cc4)c(C#N)c(C#N)c(Nc4ccc(CCCC)cc4)c2C3=O)cc1 [1,4,5,8-tetra-(4′-n-butylphenylamino)-2,3-dicyanoanthraquinone]	–
692	0.640	–	CCCCC(CC)CNc1ccc(NCC(CC)CCCC)c2c1C(=O)c1c(O)ccc(O)c1C2=O (centres unmarked) [Example 1, 1,4-di-(2-ethylhexylamino)-5,8-dihydroxyanthraquinone]	maximum absorption band (λmax) wavelength ([1]; in cyclohexane): 688 nm; extinction value ([1]; in cyclohexane): 0.660 AU; λmax, nm ([1]; measured in xylene, dyes of formula (I), R^4 and R^6 hydrogen): 692 nm; solubility in xylene (Solubility in xylene): approximately 20%
700	0.23	–	CCCCNc1c(C#N)c(C#N)c(NCCCC)c2c1C(=O)c1ccccc1C2=O [Example 2, 1,4-di-(n-butylamino)-2,3-dicyanoanthraquinone]	–
–	–	675	CCCCc1ccc(Nc2cccc3c2C(=O)c2c(Nc4ccc(CCCC)cc4)ccc(Nc4ccc(CCCC)cc4)c2C3=O)cc1 [Example 4, 1,4,5-tri(4-n-butylphenylamino)anthraquinone]	–
–	–	750	O=C1c2c(Nc3ccccc3)ccc(Nc3ccccc3)c2C(=O)c2c(Nc3ccccc3)ccc(Nc3ccccc3)c21 [Example 5, 1,4,5,8-tetra(phenylamino)anthraquinone]	molar extinction coefficient (ε) [1]: ~30,500
–	–	762	CCCCc1ccc(Nc2ccc(Nc3ccc(CCCC)cc3)c3c2C(=O)c2c(Nc4ccc(CCCC)cc4)ccc(Nc4ccc(CCCC)cc4)c2C3=O)cc1 [Example 6, 1,4,5,8-tetra(4-n-butylphenylamino)anthraquinone]	molar extinction coefficient (ε) [1]: ~36,900
